ChEMBL document CHEMBL1133250, “Antitumor promoting activities of 3-O-acyl-(-)epigallocatechins” (2000)

Legend:
Type in all cases: functional
[1] = test system: Human gammaherpesvirus 4; experiment: In vitro assay for EBV activation in Raji cells induced by 12-O-tetradecanoylphorbol-13-acetate (TPA) at the concentration of 100 (mol ratio / 32 pmol TPA)
[2] = test system: Human gammaherpesvirus 4; experiment: In vitro assay for EBV activation in Raji cells induced by 12-O-tetradecanoylphorbol-13-acetate (TPA) at the concentration of 10 (mol ratio / 32 pmol TPA)
[3] = test system: Human gammaherpesvirus 4; experiment: In vitro assay for EBV activation in Raji cells induced by 12-O-tetradecanoylphorbol-13-acetate (TPA) at the concentration of 500 (mol ratio / 32 pmol TPA); (%Viability=>80)
[4] = test system: Human gammaherpesvirus 4; experiment: Tested for % viability of Rajii cells, in an in vitro assay for TPA-induced EBV activation at concentration of 10 (mol ratio / 32 pmol TPA)
[5] = test system: Human gammaherpesvirus 4; experiment: Tested for % viability of Rajii cells, in an in vitro assay for TPA-induced EBV activation at concentration of 1000 (mol ratio / 32 pmol TPA)
[6] = test system: Human gammaherpesvirus 4; experiment: Tested for % viability of Rajii cells, in an in vitro assay for TPA-induced EBV activation at concentration of 500 (mol ratio / 32 pmol TPA)
[7] = test system: Human gammaherpesvirus 4; experiment: Tested for % viability of Rajii cells, in an in vitro assay for TPA-induced EBV activation at concentration of 100 (mol ratio / 32 pmol TPA)
[8] = test system: Human gammaherpesvirus 4; experiment: In vitro assay for EBV activation in Raji cells induced by 12-O-tetradecanoylphorbol-13-acetate (TPA) at the concentration of 1000 (mol ratio / 32 pmol TPA)

Compound | Activation [1] | Activation [2] | Activation [3] | Viability [4] | Viability [5] | Viability [6] | Viability [7] | Activation [8]
Cc1ccc(CC(=O)O[C@@H]2Cc3c(O)cc(O)cc3O[C@@H]2c2cc(O)c(O)c(O)c2)cc1 | >65.9% | >95.4% | >35.3% | >80% | 60% | >80% | >80% | 14%
CCCCCCCC(=O)O[C@@H]1Cc2c(O)cc(O)cc2O[C@@H]1c1cc(O)c(O)c(O)c1 | >56% | >89.2% | >19.3% | >80% | 60% | >80% | >80% | 6.5%
CCCCCCCCCCCCCC(=O)O[C@@H]1Cc2c(O)cc(O)cc2O[C@@H]1c1cc(O)c(O)c(O)c1 | >68.4% | >100% | >35.2% | >80% | 60% | >80% | >80% | 18.3%
CCCCCCCCCCCCCCCCCC(=O)O[C@@H]1Cc2c(O)cc(O)cc2O[C@@H]1c1cc(O)c(O)c(O)c1 | >86.9% | >100% | >64% | >80% | 60% | >80% | >80% | 31.5%
CCCCCCCCCC(=O)O[C@@H]1Cc2c(O)cc(O)cc2O[C@@H]1c1cc(O)c(O)c(O)c1 | >61.4% | >91.9% | >22.7% | >80% | 60% | >80% | >80% | 9.3%
CCCCCCCCCCCC(=O)O[C@@H]1Cc2c(O)cc(O)cc2O[C@@H]1c1cc(O)c(O)c(O)c1 | >65.8% | >94.2% | >31.9% | >80% | 60% | >80% | >80% | 12.7%
Cc1ccc(C(=O)O[C@@H]2Cc3c(O)cc(O)cc3O[C@@H]2c2cc(O)c(O)c(O)c2)cc1 | >62.8% | >91.7% | >33% | >80% | 60% | >80% | >80% | 10.4%
Oc1cc(O)c2c(c1)O[C@H](c1cc(O)c(O)c(O)c1)[C@H](O)C2 [EPIGALLOCATECHIN] | >73% | >100% | >44.9% | >80% | 60% | >80% | >80% | 19.3%
O=C(O[C@@H]1Cc2c(O)cc(O)cc2O[C@@H]1c1cc(O)c(O)c(O)c1)c1cc(O)c(O)c(O)c1 [EPIGALOCATECHIN GALLATE] | >69% | >95.9% | >35% | >80% | 60% | >80% | >80% | 15.5%
